Results: patent US20230390183A1, “METHOD FOR IMPROVING SKIN CONDITION BY CRASSOCEPHALUM RABENS EXTRACT” (Greenyn Biotechnology Co., Ltd, priority 2022, published 2023)

Tested on: skin (moisture, wrinkle, collagen density)
Assay: Comparison of different functional components for skin-improving efficacy
Assay type: in vivo, human
From the text: In addition to the Crassocephalum rabens extract of the present invention, some other commercially available materials were collected, including oral hyaluronic acid (for continuous use of 20 days), ceramide, and collagen (for continuous use of 6 weeks), to compare their effects in maintaining skin hydrated, reducing wrinkles, and increasing collagen.

## collagen
Continuous use of 6 weeks
  Moisture (%): +25.5%
  Wrinkle (%): No significant

## hyaluronic acid [Oral hyaluronic acid]
Continuous use of 20 days
  Moisture (%): +21.5%
  Wrinkle (%): −12.5%

## ceramide
No duration of use printed
  Moisture (%): +2.7%
  Wrinkle (%): −5.8%
